Results as given in publication PMC8364686, “Safety, tolerability, pharmacokinetics and pharmacodynamics of single oral doses of BI 187004, an inhibitor of 11beta-hydroxysteroid dehydrogenase-1, in healthy male volunteers with overweight or obesity” (Clinical Diabetes and Endocrinology, 2021).

Test: Plasma pharmacokinetics of BI 187004 after single oral doses (LC–MS/MS)
Conditions: male, human, plasma, po; for concentration at 6 h: planned time 6 h; for concentration at 8 h: planned time 8 h; for concentration at 10 h: planned time 10 h; for concentration at 12 h: planned time 12 h; for concentration at 36 h: planned time 36 h; for concentration at 48 h: planned time 48 h; for concentration at 72 h: planned time 72 h; for concentration at 96 h: planned time 96 h; for concentration at 0.5 h: planned time 0.5 h; for concentration at 1 h: planned time 1 h; for concentration at 1.5 h: planned time 1.5 h; for concentration at 2 h: planned time 2 h; for concentration at 2.5 h: planned time 2.5 h; for concentration at 3 h: planned time 3 h; for concentration at 4 h: planned time 4 h; for concentration at 5 h: planned time 5 h
[1] = 20 mg, BI 187004 plasma concentrations, 20 mg single oral, gMean
[2] = 20 mg, BI 187004 plasma concentrations, 20 mg single oral, Max
[3] = 20 mg, BI 187004 plasma concentrations, 20 mg single oral, Mean
[4] = 20 mg, BI 187004 plasma concentrations, 20 mg single oral, Median
[5] = 20 mg, BI 187004 plasma concentrations, 20 mg single oral, Min
[6] = 40 mg, BI 187004 plasma concentrations, 40 mg single oral, Max
[7] = 40 mg, BI 187004 plasma concentrations, 40 mg single oral, Mean
[8] = 40 mg, BI 187004 plasma concentrations, 40 mg single oral, Median
[9] = 40 mg, BI 187004 plasma concentrations, 40 mg single oral, Min
[10] = 40 mg, BI 187004 plasma concentrations, 40 mg single oral, gMean
[11] = 40 mg, BI 187004 plasma concentrations, 40 mg single oral, individual subjects

Description: This was a randomized, double-blind, placebo-controlled, single rising dose study conducted at a single center in Germany. […] Follow-up on an ambulatory basis was performed between 11 and 15 days after study drug administration. […] At the time of use the oral solution for dosing was prepared using the PFOS and a co-supplied aqueous solvent containing HP-beta-cyclodextrin 100 mg/mL. The lowest dose level solutions were prepared by further dilution of the lower concentration solution with additional solvent.
For each accepted run, the acceptance criteria for the calibration standards and quality controls were met.

With `N#Cc1ccc2c(c1)[C@H]1CCCN(C(=O)c3ccc4[nH]cnc4c3)[C@H]1C2` [BI 187004] as the compound, how does the concentration at 6 h [1] read?
The concentration at 6 h was 547 nM.

And the concentration at 8 h [2]?
Its concentration at 8 h is 645 nM.

And the concentration at 8 h [3]?
Its concentration at 8 h is 464 nM.

And the concentration at 8 h [4]?
The concentration at 8 h was 398 nM.

What about the concentration at 8 h [5] of the same compound?
The concentration at 8 h was 354 nM.

And the concentration at 8 h [1]?
Its concentration at 8 h is 449 nM.

What about the concentration at 8 h (20 mg, BI 187004 plasma concentrations, 20 mg single oral, individual subjects) of the same compound?
Its concentration at 8 h is 645 nM.

And the concentration at 10 h [2]?
The concentration at 10 h was 529 nM.

What about the concentration at 10 h [3] of the same compound?
The concentration at 10 h was 398 nM.

And the concentration at 10 h [4]?
The concentration at 10 h was 398 nM.

What about the concentration at 10 h [5] of the same compound?
The concentration at 10 h was 253 nM.

What about the concentration at 10 h [1] of the same compound?
The concentration at 10 h was 382 nM.

And the concentration at 12 h [2]?
The concentration at 12 h was 457 nM.

What about the concentration at 12 h [3] of the same compound?
Its concentration at 12 h is 331 nM.

And the concentration at 12 h [4]?
The concentration at 12 h was 311 nM.

What about the concentration at 12 h [5] of the same compound?
Its concentration at 12 h is 221 nM.

And the concentration at 12 h [1]?
Its concentration at 12 h is 316 nM.

And the concentration at 24 h (20 mg, BI 187004 plasma concentrations, 20 mg single oral, planned time 24 h, Max)?
Its concentration at 24 h is 353 nM.

And the concentration at 24 h (20 mg, BI 187004 plasma concentrations, 20 mg single oral, planned time 24 h, Mean)?
Its concentration at 24 h is 187 nM.

What about the concentration at 24 h (20 mg, BI 187004 plasma concentrations, 20 mg single oral, planned time 24 h, Median) of the same compound?
The concentration at 24 h was 155 nM.

What about the concentration at 24 h (20 mg, BI 187004 plasma concentrations, 20 mg single oral, planned time 24 h, Min) of the same compound?
The concentration at 24 h was 85.8 nM.

And the concentration at 24 h (20 mg, BI 187004 plasma concentrations, 20 mg single oral, planned time 24 h, gMean)?
Its concentration at 24 h is 161 nM.

What about the concentration at 36 h [2] of the same compound?
The concentration at 36 h was 145 nM.

What about the concentration at 36 h [3] of the same compound?
Its concentration at 36 h is 67.3 nM.

What about the concentration at 36 h [4] of the same compound?
The concentration at 36 h was 51.1 nM.

What about the concentration at 36 h [5] of the same compound?
The concentration at 36 h was 27.8 nM.

What about the concentration at 36 h [1] of the same compound?
Its concentration at 36 h is 55.4 nM.

And the concentration at 48 h [2]?
The concentration at 48 h was 104 nM.

What about the concentration at 48 h [3] of the same compound?
Its concentration at 48 h is 45.6 nM.

What about the concentration at 48 h [4] of the same compound?
Its concentration at 48 h is 34.4 nM.

What about the concentration at 48 h [5] of the same compound?
The concentration at 48 h was 15.8 nM.

And the concentration at 48 h [1]?
Its concentration at 48 h is 35.9 nM.

What about the concentration at 72 h [2] of the same compound?
The concentration at 72 h was 43.9 nM.

And the concentration at 72 h [3]?
Its concentration at 72 h is 20.5 nM.

What about the concentration at 72 h [4] of the same compound?
The concentration at 72 h was 16.4 nM.

What about the concentration at 72 h [5] of the same compound?
The concentration at 72 h was 6.98 nM.

What about the concentration at 72 h [1] of the same compound?
Its concentration at 72 h is 16.5 nM.

And the concentration at 96 h [2]?
The concentration at 96 h was 18.2 nM.

What about the concentration at 96 h [3] of the same compound?
Its concentration at 96 h is 10.4 nM.

What about the concentration at 96 h [4] of the same compound?
Its concentration at 96 h is 9.48 nM.

What about the concentration at 96 h [5] of the same compound?
The concentration at 96 h was 5.78 nM.

What about the concentration at 96 h [1] of the same compound?
The concentration at 96 h was 9.42 nM.

What about the concentration at 24 h (20 mg, C24 gMean (%gCV), 20 mg single oral dose) of the same compound?
Its concentration at 24 h is 161 nM.

What about the AUC(0-inf) (40 mg) of the same compound?
The AUC(0-inf) was 25.9 µM·h.

What about the AUC(0-t) (40 mg) of the same compound?
The AUC(0-t) was 19.9 µM·h.

What about the Cmax (40 mg) of the same compound?
Its Cmax is 2210 nM.

And the Tmax (40 mg)?
The Tmax was 1 h.

What about the Vd/F (40 mg) of the same compound?
The Vd/F was 123 L.

And the half-life (40 mg)?
Its half-life is 18.9 h.

And the concentration at 0.5 h [6]?
The concentration at 0.5 h was 2530 nM.

And the concentration at 0.5 h [7]?
Its concentration at 0.5 h is 1760 nM.

What about the concentration at 0.5 h [8] of the same compound?
Its concentration at 0.5 h is 1980 nM.

What about the concentration at 0.5 h [9] of the same compound?
Its concentration at 0.5 h is 487 nM.

And the concentration at 0.5 h [10]?
The concentration at 0.5 h was 1520 nM.

What about the concentration at 1 h [6] of the same compound?
The concentration at 1 h was 2820 nM.

And the concentration at 1 h [7]?
The concentration at 1 h was 2170 nM.

What about the concentration at 1 h [8] of the same compound?
The concentration at 1 h was 2410 nM.

What about the concentration at 1 h [9] of the same compound?
Its concentration at 1 h is 974 nM.

What about the concentration at 1 h [10] of the same compound?
The concentration at 1 h was 2050 nM.

What about the concentration at 1.5 h [6] of the same compound?
Its concentration at 1.5 h is 2610 nM.

What about the concentration at 1.5 h [7] of the same compound?
Its concentration at 1.5 h is 1950 nM.

What about the concentration at 1.5 h [8] of the same compound?
The concentration at 1.5 h was 2160 nM.

What about the concentration at 1.5 h [9] of the same compound?
Its concentration at 1.5 h is 1020 nM.

What about the concentration at 1.5 h [10] of the same compound?
Its concentration at 1.5 h is 1870 nM.

What about the concentration at 2 h [6] of the same compound?
Its concentration at 2 h is 2410 nM.

What about the concentration at 2 h [7] of the same compound?
Its concentration at 2 h is 1760 nM.

What about the concentration at 2 h [8] of the same compound?
Its concentration at 2 h is 1860 nM.

And the concentration at 2 h [9]?
Its concentration at 2 h is 1040 nM.

And the concentration at 2 h [10]?
Its concentration at 2 h is 1700 nM.

And the concentration at 2.5 h [6]?
Its concentration at 2.5 h is 2180 nM.

And the concentration at 2.5 h [7]?
Its concentration at 2.5 h is 1750 nM.

What about the concentration at 2.5 h [8] of the same compound?
The concentration at 2.5 h was 1870 nM.

What about the concentration at 2.5 h [9] of the same compound?
Its concentration at 2.5 h is 1160 nM.

And the concentration at 2.5 h [10]?
The concentration at 2.5 h was 1710 nM.

What about the concentration at 2.5 h [11] of the same compound?
Its concentration at 2.5 h is 2180 nM.

What about the concentration at 3 h [6] of the same compound?
Its concentration at 3 h is 1810 nM.

What about the concentration at 3 h [7] of the same compound?
The concentration at 3 h was 1530 nM.

What about the concentration at 3 h [8] of the same compound?
Its concentration at 3 h is 1560 nM.

What about the concentration at 3 h [9] of the same compound?
The concentration at 3 h was 1130 nM.

What about the concentration at 3 h [10] of the same compound?
Its concentration at 3 h is 1510 nM.

And the concentration at 3 h [11]?
Its concentration at 3 h is 1680 nM.

What about the concentration at 4 h [6] of the same compound?
The concentration at 4 h was 1700 nM.

What about the concentration at 4 h [7] of the same compound?
Its concentration at 4 h is 1460 nM.

What about the concentration at 4 h [8] of the same compound?
The concentration at 4 h was 1530 nM.

What about the concentration at 4 h [9] of the same compound?
Its concentration at 4 h is 1020 nM.

What about the concentration at 4 h [10] of the same compound?
Its concentration at 4 h is 1440 nM.

What about the concentration at 4 h [11] of the same compound?
The concentration at 4 h was 1640 nM.

What about the concentration at 5 h [6] of the same compound?
Its concentration at 5 h is 1610 nM.

What about the concentration at 5 h [7] of the same compound?
Its concentration at 5 h is 1320 nM.

What about the concentration at 5 h [8] of the same compound?
The concentration at 5 h was 1350 nM.

And the concentration at 5 h [9]?
The concentration at 5 h was 888 nM.

And the concentration at 5 h [10]?
Its concentration at 5 h is 1290 nM.

What about the concentration at 5 h [11] of the same compound?
The concentration at 5 h was 1440 nM.

What about the concentration at 6 h [6] of the same compound?
The concentration at 6 h was 1400 nM.

And the concentration at 6 h [7]?
The concentration at 6 h was 1120 nM.

What about the concentration at 6 h [8] of the same compound?
Its concentration at 6 h is 1130 nM.

And the concentration at 6 h [9]?
Its concentration at 6 h is 736 nM.

And the concentration at 6 h [10]?
Its concentration at 6 h is 1090 nM.

What about the concentration at 6 h [11] of the same compound?
Its concentration at 6 h is 1230 nM.

What about the concentration at 8 h [6] of the same compound?
Its concentration at 8 h is 1190 nM.

And the concentration at 8 h [7]?
The concentration at 8 h was 951 nM.

What about the concentration at 8 h [8] of the same compound?
Its concentration at 8 h is 987 nM.

And the concentration at 8 h [9]?
The concentration at 8 h was 606 nM.

What about the concentration at 8 h [10] of the same compound?
The concentration at 8 h was 929 nM.

What about the concentration at 8 h [11] of the same compound?
The concentration at 8 h was 1000 nM.
